Data from patent US20150072988A1, “USE OF N-(4-((3-(2-AMINO-4-PYRIMIDINYL)-2-PYRIDINYL)OXY)PHENYL)-4-(4-METHYL-2-THIENYL)-1-PHTHALAZINAMINE IN COMBINATION WITH HISTONE DEACETYLASE INHIBITORS FOR TREATMENT OF CANCER” (THE JOHNS HOPKINS UNIVERSITY, priority 2012, published 2015).

Tested on: phospho-histone H3
Test: Immunoblotting of phospho-histone H3 in prostate cells
Assay type: cell-based
Conditions: single agent treatment
Method: Prostate cancer cell lines (DU-145, LNCaP, PC3) were obtained from ATCC. Cells were grown in RPMI-1640 (Invitrogen) with 10% Fetal Bovine Serum (FBS) (Gemini) and maintained in a […] humidified incubator supplemented with 5% CO2. Sodium salt of VPA (Sigma-Aldrich) was prepared in RPMI at a 1M stock on the day of treatment of the cells. Vorinostat (SAHA) (AtonPharma) and AMG 900 (Amgen) were maintained in 10 mM DMSO stock solutions at −20° C. and diluted in RPMI upon use. For combination studies, compounds were administered concomitantly.
Western blotting was performed as described previously. Kachhap S K, Rosmus N, et al. “Downregulation of homologous recombination repair genes by HDAC inhibition in prostate cancer is mediated through the E2F1 transcription factor”, PLoS One 2010;5:e11208. Loading volumes equalized to 20 μg of total protein were used. Primary antibodies were diluted 1:1000 in blocking solution with the exceptions of vinculin and phosphorylated aurora A-C, which were diluted 1:4000 and 1:500, respectively. Conjugated secondary antibodies were diluted 1:4000 in blocking solution. For blocking solution 5% milk in TBST (100 mM Tris-HCl ph 7.4, 0.1% Tween20, 150 mM NaCl in H2O) was used for p21, cyclin B1, vinculin, cleaved PARP and all secondary antibodies; 5% BSA in TBST was used for the primary antibodies phosphorylated aurora, and phosphorylated and total H3. Blots were developed on film and scanned into a computer at 300 dots per inch (dpi). Densitometric analyses were performed using ImageJ (Research Services Branch, National Institute of Mental Health).

Row | Structure (SMILES) | expression of phospho-histone H3 (pH3)
1 | O=C(CCCCCCC(=O)Nc1ccccc1)NO [vorinostat] | decreased
2 | Cc1csc(-c2nnc(Nc3ccc(Oc4ncccc4-c4ccnc(N)n4)cc3)c3ccccc23)c1 [AMG 900, N-(4-((3-(2-amino-4-pyrimidinyl)-2-pyridinyl)oxy)phenyl)-4-(4-methyl-2-thienyl)-1-phthalazinamine] | decreased
3 | CCCC(CCC)C(=O)O [valproic acid] | decreased
